Measurements reported in patent US4080442A, “Disaccharide derivatives used in the treatment of hepatic diseases” (Meito Sangyo Kabushiki Kaisha, priority 1975, dated 1978).

Test system: experimental hepatitis induced by D-galactosamin
Test: Conjoint use of glutathione in experimental hepatitis induced by D-galactosamin
Type: in vivo, female Wistar rats
Settings: GSH 5 mg/rat, GSSH 5 mg/rat, AS 75 mg/rat, mixtures: GSH or GSSH 5 mg/rat + AS 75 mg/rat, average value ± S.E.
Description: Groups each of 10 female Wistar rats of 100 - 120 gram body weight put on a fast of 2 hours prior to the experiment were used. […] One hour after these administrations, all of the groups were administered with D-galactosamin. The administration of the D-galactosamin was performed in the following manner. […] After completion of this administration, the fasted state was continued. Twenty-two hours after the administration of the D-galactosaminhydrochloride, blood was taken from the abdominal aorta and measured for the GOT, GPT, bilirubin and blood glucose contained in the blood plasma. The GOT and GPT were measured by the Reitman-Frankel Method, the bilirubin by the Evelyn-Malloy Method and the blood glucose by the […].
The effects obtained by using injection mixtures of either a reduced type glutathione or an oxidized type glutathione and a sucrose derivative obtained by the method of preparing a pharmaceutical composition of the hereinafter-given Example 11 in treating animals suffering from hepatitis induced by D-galactosamin were tested by operating as in I., above.

SMILES: N[C@@H](CCC(=O)N[C@@H](CS)C(=O)NCC(=O)O)C(=O)O [GSH, Reduced type glutathione]
- GPT (control 1830±432): 1660±472 Karman U.
- GOT (control 2748±490): 2510±510 Karmen U.
